Test results as given in patent publication US5436263A, “Inhibitors of farnesyl-protein transferase” (Merck & Co., Inc., priority 1994, dated 1995).
pIC50: −log10 of the molar value.

What was measured:
bovine FPTase = target: T1, bovine FPTase (Bos taurus, UniProt P29702+P49355); experiment: In vitro inhibition of Ras farnesyl-protein transferase, partially purified bovine FPTase; format: biochemical; settings: Ras-CVLS substrate, [3H]-FPP, pH 7.4, 31° C., 60 min, concentration giving 50% inhibition of FPTase, read-out: Inhibition of RAS farnesylation IC50, bovine
T1 construct: Farnesyl-protein transferase (FPTase) from bovine brain; from tissue; host or cells: bovine brain
Method: The intrinsic farnesyl-protein transferase (FPTase) activity of representative compounds of this invention was measured by the assay as described below:
Farnesyl-protein transferase (FPTase) from bovine brain was chromatographed on DEAE-Sephacel (Pharmacia, 0-0.8M NaCl gradient elution), N-octyl agarose (Sigma, 0-0.6M NaCl gradient elution), and a mono Q HPLC column (Pharmacia, 0-0.3M NaCl gradient). Ras-CVLS (Cys-Val-Leu-Ser) at 3.5 mM, […] [^3 H]FPP, and the indicated compounds were incubated with this partially purified enzyme preparation. The FPTase inhibition data presented below is a measurement of the ability of the test compound to inhibit Ras farnesylation in vitro.
Assays of farnesyl-protein transferase. Partially purified bovine FPTase and Ras peptides (Ras-CVLS, Ras-CVIM and RAS-CAIL) were prepared as described by Schaber et al. J. Biol. Chem. 265:14701-14704 (1990) and Gibbs et al. PNAS U.S.A. 86:6630-6634 (1989), respectively. […] Precipitates were collected onto filter-mats using a TomTec Mach H cell harvestor, washed with 100% ethanol, dried and counted in an LKB β-plate counter. […] Percentage inhibition is measured by the amount of incorporation of farnesyl in the presence of the test compound when compared to the amount of incorporation in the absence of the test compound.

human FPTase = target: T2, human FPTase (Homo sapiens, UniProt P49354+P49356); experiment: In vitro inhibition of Ras farnesyl-protein transferase, human FPTase; format: biochemical; settings: 100 nM Ras-CVIM, 0.1% PEG 20,000, 10 μM ZnCl2, 30 min, concentration giving 50% inhibition of FPTase, read-out: Inhibition of RAS farnesylation IC50, human
T2 construct: made in house
Method: Inhibitory activity of the compounds of the instant invention may also be measured with an assay employing the recombinant human FPTase obtained as described by C. A. Omer et al. (Biochemistry, 32:5167-5176 (1993)).
Assays of farnesyl-protein transferase. Partially purified bovine FPTase and Ras peptides (Ras-CVLS, Ras-CVIM and RAS-CAIL) were prepared as described by Schaber et al. J. Biol. Chem. 265:14701-14704 (1990) and Gibbs et al. PNAS U.S.A. 86:6630-6634 (1989), respectively. Bovine FPTase was assayed in a volume of […] containing 100 mM N-(2-hydroxy ethyl) piperazine-N'-(2-ethane sulfonic acid) (HEPES), pH 7.4, 5 mM MgCl2, 5 mM dithiothreitol (DTT), […] [^3 H]-farnesyl diphosphate ([^3 H]-FPP; 740 CBq/mmol, New England Nuclear), 650 nM Ras-CVLS and 10 μg/ml FPTase at 31° C. for 60 min. Reactions were initiated with FPTase and stopped with 1 ml of 1.0M HCL in ethanol. Precipitates were collected onto filter-mats using a TomTec Mach H cell harvestor, washed with 100% ethanol, dried and counted in an LKB β-plate counter. The assay was linear with respect to both substrates, FPTase levels and time; less than 10 % of the [^3 H]-FPP was utilized during the reaction period. […] Percentage inhibition is measured by the amount of incorporation of farnesyl in the presence of the test compound when compared to the amount of incorporation in the absence of the test compound. […]

Ras farnesylation = settings: HMG-CoA reductase inhibitors, Hancock et al., Casey et al., Schafer et al.; cited from earlier work

| SMILES | pIC50 (bovine FPTase) | pIC50 (human FPTase) | Inhibition of Ras farnesylation in vivo (Ras farnesylation) |
| --- | --- | --- | --- |
| COC(=O)C1=CC(CO)=COc2oc3cccc(O)c3c(=O)c21 [Compound 1, 7-hydroxy-3-(hydroxymethyl)-6-oxo-6H-oxepino[2,3-b][1]benzopyran-5-carboxylic acid methyl ester] | 6.52 | 5.57 | – |
| CC[C@H](C)C(=O)O[C@H]1CCC=C2C=C[C@H](C)[C@H](CC[C@@H]3C[C@@H](O)CC(=O)O3)[C@H]21 [compactin] | – | – | Inhibition of Ras farnesylation in vivo has been demonstrated |
| CC[C@H](C)C(=O)O[C@H]1C[C@@H](C)C=C2C=C[C@H](C)[C@H](CC[C@@H]3C[C@@H](O)CC(=O)O3)[C@H]21 [lovastatin] | – | – | Inhibition of Ras farnesylation in vivo has been demonstrated |
| COC(=O)C1=CC(COC(C)=O)=COc2oc3cccc(OC(C)=O)c3c(=O)c21 [Compound 2, 7-acetyloxy-3-[(acetyloxy)methyl]-6-oxo-6H-oxepino[2,3-b][1]benzopyran-5-carboxylic acid methyl ester] | 6.00 | – | – |
